Measured values taken from US9029409B2, “Isoxazolines as therapeutic agents” (AbbVie Inc., priority 2011, dated 2015).
pIC50: −log10 of the molar value.

Target: T1, recombinant human MMP13 catalytic domain (CD) (Homo sapiens, UniProt P45452)
T1 construct: catalytic domain (CD) construct encompassing residues 20-274 (SWISS-PROT P45452); made in house
Assay: MMP-13 catalytic domain FRET enzyme assay
Type: biochemical
Details: recombinant human MMP-13 catalytic domain
Outline: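 Human MMP-13 catalytic domain (res 20-274, E. coli-expressed), 0.4 nM, cleaving FRET peptide (0.25 μM) in Tris pH 7.5/CaCl2/NaCl/Brij 35, 5% DMSO, 60 min RT; EDTA-quenched, fluorescence 485/535 nm. IC50 from sigmoidal fit of % inhibition. Some compounds also run on APMA-activated full-length MMP13 (2 nM).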

Compared with `COc1cc(CNC(=O)c2cc(C3=NO[C@@H]([C@H]4CO[C@H](CO)CO4)C3)nc(C)n2)ccc1F` [drawing 837], `Cc1nc(C(=O)NCc2ccc(F)c(Cl)c2)cc(C2=NO[C@H]([C@H]3CO[C@H](CO)CO3)C2)n1` [drawing 901] is higher in pIC50: 6.00 to 7.00 for the first, > 8.00 for the second.

First: COc1cc(CNC(=O)c2cc(C3=NOC(C4CCN(C(=O)C5CC5)CC4)C3)nc(C)n2)ccc1F (stereo not shown) [drawing 875]
Second: COc1cc(CNC(=O)c2cc(C3=NOC(C4CCN(C(=O)N(C)C)CC4)C3)nc(C)n2)ccc1F (stereo not shown) [drawing 876]
The pIC50 of the first is lower: 7.00 to 8.00 for the first, > 8.00 for the second.

First: CCNC(=O)N1CCC(C2CC(c3cc(C(=O)NCc4ccc(F)c(OC)c4)nc(C)n3)=NO2)CC1 (stereo not shown) [drawing 877]
Second: COc1cc(CNC(=O)c2cc(C3=NOC(C4CCN(C(=O)NCCO)CC4)C3)nc(C)n2)ccc1F (stereo not shown) [drawing 888]
The pIC50 of the first is lower: 7.00 to 8.00 for the first, > 8.00 for the second. The second is the more potent here.

`COc1cc(CNC(=O)c2cc(C3=NOC(C4CCN(C(=O)CNC(C)=O)CC4)C3)nc(C)n2)ccc1F` (stereo not shown) [drawing 879] and `CCNC(=O)N1CCC(C2CC(c3cc(C(=O)NCc4ccc(F)c(OC)c4)nc(C)n3)=NO2)CC1` (stereo not shown) [drawing 1062] fall in the same range of pIC50: 7.00 to 8.00 for the first, 7.00 to 8.00 for the second.

`COc1cc(CNC(=O)c2cc(C3=NOC(C4CCN(C(=O)CC#N)CC4)C3)nc(C)n2)ccc1F` (stereo not shown) [drawing 881] and `COc1cc(CNC(=O)c2cc(C3=NOC(C4CCN(C(=O)CNC(C)=O)CC4)C3)nc(C)n2)ccc1F` (stereo not shown) [drawing 1064] fall in the same range of pIC50: 7.00 to 8.00 for the first, 7.00 to 8.00 for the second.

First: Cc1nc(C(=O)NCc2ccc(F)c(Cl)c2)cc(C2=NO[C@@H]([C@H]3CO[C@H](CO)CO3)C2)n1 [drawing 902]
Second: Cc1nc(C(=O)NCc2ccc(F)c(Cl)c2)cc(C2=NO[C@H]([C@H]3CO[C@@H](CO)CO3)C2)n1 [drawing 924]
The pIC50 of the first is higher: 6.00 to 7.00 for the first, < 6.00 for the second.

First: COc1ccc(CNC(=O)c2cc(C3=NO[C@H]([C@H]4CO[C@@H](CO)CO4)C3)nc(C)n2)cc1 [drawing 922]
Second: COc1cc(CNC(=O)c2cc(C3=NO[C@@H]([C@H]4CO[C@H](CO)CO4)C3)nc(C)n2)ccc1F [drawing 1055]
The pIC50 of the first is lower: < 6.00 for the first, 6.00 to 7.00 for the second.

First: COc1ccc(CNC(=O)c2cc(C3=NO[C@H]([C@H]4CO[C@@H](CO)CO4)C3)nc(C)n2)cc1 [drawing 923]
Second: Cc1nc(C(=O)NCc2ccc(F)c(Cl)c2)cc(C2=NO[C@H]([C@H]3CO[C@@H](CO)CO3)C2)n1 [drawing 925]
The pIC50 of the first is lower: < 6.00 for the first, 7.00 to 8.00 for the second.

`Cc1nc(C(=O)NCc2ccc(F)c(F)c2)cc(C2=NO[C@H]([C@H]3CO[C@H](CO)CO3)C2)n1` [drawing 952] and `Cc1nc(C(=O)NCc2ccc(F)c(Cl)c2)cc(C2=NO[C@H]([C@H]3CO[C@H](CO)CO3)C2)n1` [drawing 1069] fall in the same range of pIC50: 7.00 to 8.00 for the first, 7.00 to 8.00 for the second.

`Cc1nc(C(=O)NCc2ccc(F)c(F)c2)cc(C2=NO[C@H]([C@H]3CO[C@H](CO)CO3)C2)n1` [drawing 953] and `Cc1nc(C(=O)NCc2ccc(F)c(Cl)c2)cc(C2=NO[C@@H]([C@H]3CO[C@H](CO)CO3)C2)n1` [drawing 1070] cannot be ordered by pIC50: < 6.00 for the first, < 6.00 for the second.

`Cc1nc(C(=O)NCc2ccc(F)c(C)c2)cc(C2=NOC(c3ccc(=O)n(C)c3)C2)n1` (stereo not shown) [drawing 990] and `COc1cc(CNC(=O)c2cc(C3=NOC(C4CCN(C(=O)N(C)C)CC4)C3)nc(C)n2)ccc1F` (stereo not shown) [drawing 1061] cannot be ordered by pIC50: > 8.00 for the first, > 8.00 for the second.

`Cc1nc(C(=O)NCc2ccc(F)c(C)c2)cc(C2=NOC(c3ccc(=O)n(C)c3)C2)n1` (stereo not shown) [drawing 1015] and `COc1cc(CNC(=O)c2cc(C3=NO[C@H]([C@H]4CC[C@H](NC(C)=O)CC4)C3)nc(C)n2)ccc1F` [drawing 1031] cannot be ordered by pIC50: > 8.00 for the first, > 8.00 for the second.

`COc1cc(CNC(=O)c2cc(C3=NO[C@H]([C@H]4CC[C@H](NC(C)=O)CC4)C3)nc(C)n2)ccc1F` [drawing 1032] and `COc1cc(CNC(=O)c2cc(C3=NOC(C4CCN(C(=O)C5CC5)CC4)C3)nc(C)n2)ccc1F` (stereo not shown) [drawing 1063] fall in the same range of pIC50: 7.00 to 8.00 for the first, 7.00 to 8.00 for the second.

First: COc1cc(CNC(=O)c2cc(C3=NOC(C4CCN(C(=O)CC#N)CC4)C3)nc(C)n2)ccc1F (stereo not shown) [drawing 1065]
Second: COc1cc(CNC(=O)c2cc(C3=NOC(C4CCN(C(=O)NCCO)CC4)C3)nc(C)n2)ccc1F (stereo not shown) [drawing 1067]
The pIC50 of the first is lower: 7.00 to 8.00 for the first, > 8.00 for the second.
